Each structure is given as a SMILES string.

Usually IC50 stands for the concentration that gives 50% inhibition. A high value points to weaker potency.

In one data set the test system is HepG2. Briefly: ATP content test. The following applies: HepG2, 100 μM, culture for one day, relative value to control (free of compound). The format is cell-based, human. The method, then:
(§1) ATP Content Test Human hepatocellular liver carcinoma cell line HepG2 (ATCC No. HB-8065) was maintained and subcultured at 5% CO2, 37° C. in a Dulbecco's modified Eagle medium (DMEM; Invitrogen) medium containing 10% fetal bovine serum (FBS; TRACE SCIENTIFIC LTD.), 1 mmol/L sodium pyruvate (Invitrogen), 2 mmol/L L-glutamine (Invitrogen), 50 IU/mL penicillin (Invitrogen), 50 μg/mL streptomycin (Invitrogen). Test reagent was prepared to 10 mM with DMSO, and diluted with DMEM medium containing 0.5% FBS, 1 mmol/L sodium pyruvate, 2 mmol/L L-glutamine, 50 IU/ml penicillin, 50 μg/mL streptomycin to the DMSO final concentration of 0.1%. HepG2 (2×10^4 cells/well) was cultured on a 96 well white plate (Costar) together with the test reagent at 5% CO2, 37° C. After culture for one day, the intracellular ATP content was measured with ATPLite™ (PerkinElmer Life Sciences). The results are shown in Table 1 as relative value (%) to the control (free of compound) at 100 μm (n≧3, mean±SD).

The target in a further data set is T1, H^+/K^+-ATPase (Sus scrofa, UniProt P19156).
T1 construct: The obtained microsomal fraction was used as proton, potassium-adenosine triphosphatase preparations; from tissue; host or cells: swine stomach, microsomal fraction of gastric mucosa
Nature of the data set: Proton potassium-adenosine triphosphatase (H+,K+-ATPase) inhibitory activity test. In kind it is biochemical. The following applies: swine gastric mucosa microsomal fraction, pH 6.5, 37° C. The method, then: Proton Potassium-Adenosine Triphosphatase (H^+,K^+-ATPase) Inhibitory Activity Test According to the method of Wallmark et al. [Biochim. Biophys. Acta, 728, 31 (1983)], a microsomal fraction of gastric mucosa was prepared from the stomach of swine. First, the stomach was removed, washed with tap water, and immersed in 3 mol/L sodium chloride, and the surface of the mucosa was wiped with a paper towel. The gastric mucosa was removed, minced, and homogenized in a 0.25 mol/L sucrose solution (pH 6.8) containing 1 mmol/L EDTA and 10 mmol/L tris-hydrochloric acid using polytron (Kinematica). The obtained homogenate was centrifuged at 20,000×g for 30 min and the supernatant was centrifuged at 100,000×g for 90 min. The precipitate was suspended in 0.25 mol/L sucrose solution, the suspension was superimposed on a 0.25 mol/L sucrose solution containing 7.5% Ficoll, and centrifuged at 100,000×g for 5 hr. The fraction containing the interface between the both layers was recovered, and centrifugally washed with 0.25 mol/L sucrose solution. The obtained microsomal fraction was used as proton, potassium-adenosine triphosphatase preparations. To 50 mmol/L HEPES-Tris buffer (5 mmol/L magnesium chloride, 10 mmol/L potassium chloride, 10 μmol/L valinomycin, pH=6.5, 40 μL) containing 2.5 μg/mL enzyme preparation based on the protein concentration was added a test compound (5 μL) dissolved in 10% dimethyl sulfoxide solution, and the mixture was incubated at 37° C. for 30 min. A 2 mmol/L adenosine triphosphate tris salt solution (50 mmol/L HEPES-tris buffer (5 mmol/L magnesium chloride, pH 6.5), 5 μL) was added to start an enzyme reaction. The enzyme reaction was performed at 37° C. for 20 min, and then a malachite green solution (a mixture of 0.12% malachite green sulfate (2.5 mol/L) solution, 7.5% ammonium molybdate and 11% Tween 20 at a ratio of 100:25:2, 15 μL) was added to stop the reaction. The reaction mixture was stood at room temperature for 15 min, and the resulting reaction product of inorganic phosphorus and malachite green was measured by colorimetric quantification at a wavelength of 610 nm. In addition, the amount of inorganic phosphoric acid in a reaction solution free of potassium chloride was also measured in the same manner, and the value was extracted from that in the presence of potassium chloride, whereby the proton, potassium-adenosine triphosphatase activity was measured. The inhibitory rate (%) was determined from the activity value of the control and that at each concentration of the test compound, and 50% inhibitory concentration (IC50) to proton, potassium-adenosine triphosphatase was determined.

The test system of the next data set is Caspase-3/7. Briefly: Caspase-3/7 activity test. The format is cell-based, human. The following applies: HepG2, 100 μM, culture for one day, relative to staurosporine maximum as 100%, no test reagent as 0%. The method, then: as §1, with “Human” for “ATP Content Test Human”, “mean±SD). Caspase-3/7 Activity Test The cells were cultured for one day according to a method similar to the method of Experimental Example 3, and the intracellular Caspase-3/7 activity was measured by Caspase-Glo 3/7 Assay (Promega). The results are shown in Table 1 as relative activity (%) of each test reagent when the maximum value of Caspase-3/7 activity on exposure to staurosporine as 100%, and activity without addition of test reagent as 0% (n≧3, mean±SD).” for “mean±SD).”

A further data set concerns anesthetized rat. Nature of the data set: Histamine-stimulated acid secretion suppression test using anesthetized rat. In kind it is in vivo. The following applies: 1 mg/kg i.v., anesthetized SD rat, 3 hr after histamine. The method, then: Histamine-Stimulated Acid Secretion Suppression Test Using Anesthetized Rat 7-Week-old Jcl: male SD rats were fasted for about 24 hr and used for the experiment. Under urethane (1.2 g/kg, i.p.) anesthesia, the abdomen was incised along the middle-spinal line and the pyloric ring was ligated. Test compound (1 mg/kg) was intravenously administered, the abdominal incision was sutured, and histamine dihydrochloride (30 mg/kg/10 mL) dissolved in physiological saline was subcutaneously administered. After 3 hr from histamine administration, the rats were killed with carbon dioxide gas. The stomach was isolated and the accumulated gastric fluid was collected. The gastric fluid amount was measured and the acid level was measured using acid titration apparatus COM-555 (HIRANUMA SANGYO Co., Ltd.), and the product thereof was taken as the acid secretion level. The acid secretion suppressive rate of the test compound was determined from the comparison with control.

T1 sequence (P19156 whole entry): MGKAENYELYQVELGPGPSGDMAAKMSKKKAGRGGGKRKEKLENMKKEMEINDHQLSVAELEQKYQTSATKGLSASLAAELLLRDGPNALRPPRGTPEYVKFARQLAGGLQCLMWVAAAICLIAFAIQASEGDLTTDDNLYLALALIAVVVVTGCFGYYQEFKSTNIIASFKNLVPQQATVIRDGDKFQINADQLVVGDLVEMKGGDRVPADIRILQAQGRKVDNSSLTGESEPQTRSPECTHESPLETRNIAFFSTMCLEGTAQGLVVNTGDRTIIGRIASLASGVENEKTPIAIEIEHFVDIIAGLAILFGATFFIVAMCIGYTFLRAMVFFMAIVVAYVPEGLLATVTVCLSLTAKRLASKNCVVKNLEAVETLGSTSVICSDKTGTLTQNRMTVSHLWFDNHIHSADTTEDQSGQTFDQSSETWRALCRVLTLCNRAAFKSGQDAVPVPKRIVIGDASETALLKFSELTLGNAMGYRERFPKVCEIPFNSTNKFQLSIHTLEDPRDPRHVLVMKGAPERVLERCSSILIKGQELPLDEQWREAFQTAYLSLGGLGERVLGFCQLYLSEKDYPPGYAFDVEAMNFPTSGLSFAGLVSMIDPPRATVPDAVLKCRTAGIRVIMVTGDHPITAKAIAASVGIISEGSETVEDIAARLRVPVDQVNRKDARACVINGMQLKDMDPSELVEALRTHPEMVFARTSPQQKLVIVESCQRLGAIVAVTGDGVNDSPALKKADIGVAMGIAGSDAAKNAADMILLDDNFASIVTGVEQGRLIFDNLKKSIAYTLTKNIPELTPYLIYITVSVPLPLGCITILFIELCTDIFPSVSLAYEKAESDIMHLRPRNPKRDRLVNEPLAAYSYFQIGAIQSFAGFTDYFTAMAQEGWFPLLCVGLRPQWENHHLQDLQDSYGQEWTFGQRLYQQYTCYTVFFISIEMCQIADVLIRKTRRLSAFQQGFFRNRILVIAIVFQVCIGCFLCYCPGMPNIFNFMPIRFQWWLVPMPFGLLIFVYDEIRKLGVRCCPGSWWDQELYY
T1 sequence (P18434 whole entry partner): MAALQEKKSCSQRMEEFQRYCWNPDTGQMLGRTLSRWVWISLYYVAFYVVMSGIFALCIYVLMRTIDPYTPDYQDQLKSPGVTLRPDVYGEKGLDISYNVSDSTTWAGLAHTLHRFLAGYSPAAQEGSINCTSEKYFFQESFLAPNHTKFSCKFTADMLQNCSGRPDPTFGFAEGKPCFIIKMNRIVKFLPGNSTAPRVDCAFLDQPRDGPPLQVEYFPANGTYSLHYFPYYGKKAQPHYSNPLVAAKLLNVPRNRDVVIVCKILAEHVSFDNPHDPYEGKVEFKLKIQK

Turning to `CNCc1cc(S(=O)(=O)c2cccc(C#N)c2)n(-c2cccnc2F)n1.Cl` [Example 4, 3-({1-(2-fluoropyridin-3-yl)-3-[(methylamino)methyl]-1H-pyrazol-5-yl}sulfonyl)benzonitrile hydrochloride], in the data set with HepG2, the “ATP content (%, 100 μM)” value stood at 98.5%. The compound further gave an IC50 against H^+/K^+-ATPase of 230 nM. Further, in the data set with Caspase-3/7, the “Caspase-3/7 activity (%, 100 μM)” value turned out to be 1.0%. Moreover, in the data set with anesthetized rat, the “acid secretion inhibitory rate (%, 1 mg/kg, intravenous administration, rat)” value was determined as 99%.
Consider `CNCc1cc(S(=O)(=O)c2ccc(OC)cc2)n(-c2cccnc2F)n1.Cl` [Example 2, 1-{1-(2-fluoropyridin-3-yl)-5-[(4-methoxyphenyl)sulfonyl]-1H-pyrazol-3-yl}-N-methylmethanamine hydrochloride], for which, at H^+/K^+-ATPase, the IC50 amounted to 350 nM. Moreover, in the data set on anesthetized rat, the “acid secretion inhibitory rate (%, 1 mg/kg, intravenous administration, rat)” value stood at 82%.
Turning to `CNCc1cc(S(=O)(=O)c2ccc(F)cc2)n(-c2cccnc2F)n1.Cl` [Example 1, 1-{5-[(4-fluorophenyl)sulfonyl]-1-(2-fluoropyridin-3-yl)-1H-pyrazol-3-yl}-N-methylmethanamine hydrochloride], the “ATP content (%, 100 μM)” value with HepG2 came to 95.9%. Also, the IC50 against H^+/K^+-ATPase amounted to 120 nM. Moreover, the “Caspase-3/7 activity (%, 100 μM)” value in the data set with Caspase-3/7 came out at 0.1%. Also, the “acid secretion inhibitory rate (%, 1 mg/kg, intravenous administration, rat)” value in the data set with anesthetized rat was determined as 98%.
As for `CNCc1cc(S(=O)(=O)c2cccc(C)c2)n(-c2cccnc2F)n1.Cl` [Example 3, 1-{1-(2-fluoropyridin-3-yl)-5-[(3-methylphenyl)sulfonyl]-1H-pyrazol-3-yl}-N-methylmethanamine hydrochloride], the “ATP content (%, 100 μM)” value in the data set with HepG2 worked out at 90.1%. The compound also registered an IC50 on H^+/K^+-ATPase of 88 nM. In the data set on Caspase-3/7, the “Caspase-3/7 activity (%, 100 μM)” value is recorded as −0.2%. Moreover, in the data set with anesthetized rat, the “acid secretion inhibitory rate (%, 1 mg/kg, intravenous administration, rat)” value is 95%.

These data come from US8895588B2, “Pyrazole compound” (Takeda Pharmaceutical Company Limited, priority 2009, dated 2014).
